Source: US20230219969A1 (priority 2020, published 2023)

Legend:
Rat cortical neurons [1] = assay: Neurite Outgrowth Assay (Procedure A); assay type: cell-based; settings: 1 hour treatment at DIV 4, analyzed DIV 7
Source text: Neurite outgrowth assay. Changes in the pattern of neurite outgrowth have been implicated in neurodegenerative disorders as well as traumatic injuries. The discovery of new compounds that can positively affect neuritogenesis are important for developing new therapeutics for neurological diseases. Measurement of neurite outgrowth of rat cortical neurons using an automated image-based assay is used to determine the neuroplastic effects of the compounds provided herein. In some embodiments, a compound provided herein increases the pattern of neurite outgrowth. In some embodiments, a compound provided herein increases neurite average length compared to a control. In some embodiments, a compound provided herein increases neurite branch points compared to a control. In some embodiments, a compound provided herein increases neurite average length and neurite branch points compared to a control.
In some embodiments, the plastogenic potential of compounds provided herein is assessed by measuring the changes in neurite development. In some embodiments, the plastogenic potential (as measured by Neurite Outgrowth Procedure A) of the compounds is shown in Table 10.
Neurite Outgrowth Assay (Procedure A). Rat cortical neurons (20,000 cells/well) were freshly isolated from embryonic day 18 rats and cultured in Neurobasal Medium (+B27). The cultured cells were plated in 96 well-plates (avoiding external wells). At DIV 4, the neurons were treated with compound or control (10 μM) for 1 hour followed by complete washout of the compound. At DIV 7, the neurons were analyzed. The experiments were performed in triplicate. Neurite outgrowth was measured analyzing the following parameters: Number of Cell Bodies, total neurite length (pixels), Root Count, Segments, Extremities Count and node points. Changes in the pattern of neurite outgrowth of the neurons were analyzed by immunocytochemistry against […]. Pictures were acquired by the CellInsight CX7 from Thermo Fisher and analyzed using its software. Results generated in the equipment were maximum neurite length, extremity count, root count, dendrite branch points, and total neurite length. The results were compared the percent of DMSO control, representing the percentage of outgrowth compare to vehicle control in neuronal outgrowth.

Rat cortical neurons [2] = assay: Neurite Outgrowth in Primary Neuronal Cultures Assay (Procedure B); assay type: cell-based; parameters: key: A: Statistically significant mean increase as a percent of DMSO control at 10 μM or less; B: No statistically significant mean increase as a percent of DMSO control at 10 μM or less; settings: 72 h, percent of DMSO control at 10 μM or less
Source text: Neurite Outgrowth in Primary Neuronal Cultures Assay (Procedure B). Changes in the pattern of neurite outgrowth have been implicated in psychiatric and neurodegenerative disorders as well as traumatic injuries. The discovery of new compounds that can positively affect neuritogenesis are important for developing new therapeutics for neurological diseases. Measurement of neurite outgrowth of rat cortical neurons using an automated image-based assay was used to determine the neuroplastic effects of the compounds of the present invention. The neurite outgrowth assay was performed at Neurofit SAS (France) as described below.
Pregnant Wistar rats (Janvier; France) were used for the study. They were delivered 6 days before their use. Upon arrival at Neurofit animal facility, they were housed one per cage and maintained in a room with controlled temperature (21-22° C.) and a reversed light-dark cycle (12 h/12 h; lights on: 17:30-05:30; lights off: 05:30-17:30) with food and water available ad libitum.
Female Wistar rats of 17 days gestation were killed by cervical dislocation and the fetuses were removed from the uterus. Their brains were placed in ice-cold medium of Leibovitz (L15, Gibco, Fisher bioblock, France). Cortices were dissected and meninges were carefully removed. The cortical neurons were dissociated by trypsinization for 30 min at 37° C. (trypsin-EDTA, Gibco) in presence of 0.1 mg/ml DNAse I (Roche, France). The reaction was stopped by addition of Dulbecco's Modified Eagle Medium (DMEM; Gibco) with 10% of fetal bovine serum (FBS; Gibco). The suspension was triturated with a 10-ml pipette and using a needle syringe 21G and centrifuged at 350×g for 10 min at room temperature. The pellet of dissociated cells was resuspended in a medium consisting of Neurobasal (Gibco) supplemented with 2% B27 supplement (Gibco), 0.5 mM L-Glutamine (Gibco), an antibiotic-antimicotic mixture. Viable cells were counted in a Neubauer cytometer using the trypan blue exclusion test (Sigma). Cells were seeded at a density of 10000 cells per well in 96-well plate (Costar) precoated with poly-L-lysine. Test compound at different concentrations were added to the cultures. Donepezil (positive control) was tested at 250 nM.
After 72 h (3 days) of plating, cultures were fixed with paraformaldehyde in PBS (4%, Sigma) for 30 min at 4° C. Then, cells were successively permeabilized with 0.1% Triton X100 for 30 min, saturated with PBS containing 3% of BSA and were incubated 1 h with anti-beta III tubulin antibody (Sigma) at 1/10 000 in PBS containing 0.5% of BSA. Cells were washed three times with PBS containing 0.5% of BSA, and they were incubated 1 h with goat anti-mouse antibody coupled with AF488 (Invitrogen A11001) diluted at 1/1000 in PBS containing 0.5% of BSA. Finally, nuclei were staining with DAPI 1 mg/ml at 1/1000 in PBS containing 0.5% of BSA. After rinsing with PBS, the plate was filmed and neurite networks were examined and analyzed using High-Content Screening (CellInsight, Thermo Scientific). The average number of neurites per neuron and the average total length of neurites per neuron were the main parameters analyzed. Analysis of data was performed using analysis of variance (ANOVA). The Fisher's Protected Least Significant Difference test was used for multiple comparisons. A p value<0.05 was considered significant. The software used is StatView 5.0 from SAS Institut.
In some embodiments, a compound of the present invention increases the pattern of neurite outgrowth. In some embodiments, a compound of the present invention increases neurite average length compared to a control. In some embodiments, a compound of the present invention increases neurite branch points compared to a control.

5HT2A [3] = target: T1, 5HT2A (Homo sapiens, UniProt P28223); assay: cell-based
Protocol: Cell lines were expanded from freezer stocks according to standard procedures. Cells were seeded in a total volume of 20 μL into black-walled, clear-bottom, Poly-D-lysine coated 384-well microplates and incubated at 37° C. for the appropriate time prior to testing. Assays were performed in 1× Dye Loading Buffer consisting of 1× Dye, 1× Additive A and 2.5 mM Probenecid in HBSS/20 mM Hepes. Probenicid was prepared fresh. Cells were loaded with dye prior to testing. Media was aspirated from cells and replaced with 20 μL Dye Loading Buffer. Cells are incubated for 30-60 minutes at 37° C.
For agonist determination, cells were incubated with sample to induce response. After dye loading, cells were removed from the incubator and 10 μL HBSS/20 mM Hepes was added. […] Cells were incubated for 30 minutes at room temperature in the dark to equilibrate plate temperature. Intermediate dilution of sample stocks was performed to generate 4× sample in assay buffer. Compound agonist activity was measured on a FLIPR Tetra (MDS). Calcium mobilization is monitored for 2 minutes and 10 μL 4× sample in HBSS/20 mM Hepes was added to the cells 5 seconds into the assay.
Compound activity was analyzed using CBIS data analysis suite (ChemInnovation, CA). For agonist mode assays, percentage activity was calculated using the following formula:
% Activity=100%×(mean RFU of test sample−mean RFU of vehicle control)/(mean MAX RFU control ligand −mean RFU of vehicle control).

5HT2A [4] = target: T1, 5HT2A; assay: Serotonin 5-HT2A in vitro cellular IPOne agonism assay; assay type: cell-based; parameters: host or cells: CHO-K1; settings: CHO-K1 cells, IPOne HTRF; read-out: 5-HT2A IPOne Agonism Activity
Protocol: Serotonin 5-HT2A In Vitro Cellular IPOne Agonism Assay. The 5-HT2A IPOne HTRF assay was performed at Epics Therapeutics S.A. (Belgium, FAST-0505I) using conventional methods. Briefly, CHO-K1 cells expressing human recombinant 5-HT2A receptor grown to mid-log phase in culture media without antibiotics were detached with PBS-EDTA, centrifuged, and resuspended in medium without antibiotics buffer. 20,000 cells are distributed in a 96 well plate and incubated overnight at 37° C. with 5% CO2.
For agonist testing, the medium is removed and 20 μl of assay buffer plus 20 μl of test compound or reference agonist are added in each well. The plate is incubated for 60 min. at 37° C. with 5% CO2.
After addition of the lysis buffer containing IP1-d2 and anti-IP1 cryptate detection reagents, plates are incubated 1-hour at room temperature, and fluorescence ratios are measured according to the manufacturer specification, with the HTRF kit.
(§1) The compounds provided herein were tested in the Serotonin 5-HT2A and 5-HT2C in vitro radioligand binding and cellular IPOne agonism assays. The binding and agonism functional potencies of several compound provided herein compounds (as indicated by their IC50s or EC50s) are shown in Table 11.

5HT2A [5] = target: T1, 5HT2A; assay: Serotonin 5-HT2A in vitro radioligand binding competition assay ([3H]-DOI); parameters: purchased Epics Therapeutics S.A. (Belgium) FAST-0505B; settings: [3H]-DOI competition, membrane extracts; read-out: 5-HT2A Radioligand Binding Activity
Protocol: Serotonin 5-HT2A In Vitro Radioligand Binding Competition Assay. The 5-HT2A radioligand binding competition assay was performed at Epics Therapeutics S.A. (Belgium, FAST-0505B) using conventional methods. Briefly, competition binding is performed in duplicate in the wells of a 96 well plate (Master Block, Greiner, 786201) containing binding buffer (optimized for each receptor), membrane extracts (amount of protein/well optimized for each receptor), radiotracer [^3H]-DOI (final concentration optimized for each receptor) and test compound. Nonspecific binding is determined by co-incubation with 200-fold excess of cold competitor. The samples are incubated in a final volume of 0.1 ml at a temperature and for a duration optimized for each receptor and then filtered over filter plates. Filters are washed six times with 0.5 ml of ice-cold washing buffer (optimized for each receptor) and 50 μl of Microscint 20 (Packard) are added in each well. The plates are incubated 15 min on an orbital shaker and then counted with a TopCount™ for 1 min/well.
as §1

5HT2A [6] = assay type: cell-based; settings: result in words
mice = assay: Head-twitch response (HTR) in mice; assay type: in vivo; settings: hallucinogenic potential
5HT2A [7] = settings: result in words

T1 sequence (P28223 whole entry): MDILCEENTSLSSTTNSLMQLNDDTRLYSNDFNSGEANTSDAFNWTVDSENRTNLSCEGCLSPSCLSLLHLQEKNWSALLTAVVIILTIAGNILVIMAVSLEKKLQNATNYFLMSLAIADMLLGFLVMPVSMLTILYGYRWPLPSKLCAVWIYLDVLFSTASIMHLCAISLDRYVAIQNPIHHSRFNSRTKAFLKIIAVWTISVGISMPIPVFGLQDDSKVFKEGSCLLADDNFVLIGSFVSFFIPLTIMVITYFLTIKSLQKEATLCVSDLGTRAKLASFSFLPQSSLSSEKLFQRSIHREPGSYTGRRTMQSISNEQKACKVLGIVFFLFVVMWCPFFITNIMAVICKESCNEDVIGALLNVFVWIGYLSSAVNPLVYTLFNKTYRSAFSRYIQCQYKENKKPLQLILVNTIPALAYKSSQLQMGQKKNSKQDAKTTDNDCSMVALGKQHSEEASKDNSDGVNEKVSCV

COc1ccc2c(ccn2CCN(C)C)n1 [Example 3, 2-(5-methoxy-1H-pyrrolo[3,2-b]pyridin-1-yl)-N,N-dimethylethan-1-amine]
Neurite Average Length @ 10 μM (Rat cortical neurons [1]): B (100%-200% vehicle)
Neurite Branch Points: @ 10 μM (Rat cortical neurons [1]): A (>200% vehicle)
Increase in Neurite Length (Rat cortical neurons [2]): A
Increase in Neurite Number (Rat cortical neurons [2]): B
EC50 (5HT2A [3]): > 110 µM
EC50 (5HT2A [4]): > 10 µM
IC50 (5HT2A [5]): 0.101 to 1 µM

COc1cc2ccn(CCN(C)C)c2cn1 [Example 4, 2-(5-methoxy-1H-pyrrolo[2,3-c]pyridin-1-yl)-N,N-dimethylethan-1-amine]
Neurite Average Length @ 10 μM (Rat cortical neurons [1]): B (100%-200% vehicle)
Neurite Branch Points: @ 10 μM (Rat cortical neurons [1]): B (100%-200% vehicle)
Increase in Neurite Length (Rat cortical neurons [2]): A
Increase in Neurite Number (Rat cortical neurons [2]): A
EC50 (5HT2A [3]): > 110 µM
EC50 (5HT2A [4]): > 10 µM
IC50 (5HT2A [5]): 1 to 10 µM

COc1cnc2c(ccn2CCN(C)C)c1 [Example 5, 2-(5-methoxy-1H-pyrrolo[2,3-b]pyridin-1-yl)-N,N-dimethylethan-1-amine]
Neurite Average Length @ 10 μM (Rat cortical neurons [1]): B (100%-200% vehicle)
Neurite Branch Points: @ 10 μM (Rat cortical neurons [1]): C (<100% vehicle)
Increase in Neurite Length (Rat cortical neurons [2]): B
Increase in Neurite Number (Rat cortical neurons [2]): B
EC50 (5HT2A [3]): > 110 µM
EC50 (5HT2A [4]): > 10 µM
IC50 (5HT2A [5]): 0.101 to 1 µM

COc1ccc2[nH]cc(CCN(C)C)c2c1 [Example 5-MeO-DMT]
activation of 5HT2A sensor assay in agonist mode (5HT2A [6]): activate the 5HT2A sensor assay in agonist mode
head-twitch response (HTR) (mice): produces a robust, dose-dependent head-twitch response

CN(C)CCn1ccc2cncnc21 [Example 6, N,N-dimethyl-2-(7H-pyrrolo[2,3-d]pyrimidin-7-yl)ethan-1-amine]
Neurite Average Length @ 10 μM (Rat cortical neurons [1]): A (>200% vehicle)
Neurite Branch Points: @ 10 μM (Rat cortical neurons [1]): A (>200% vehicle)
Increase in Neurite Length (Rat cortical neurons [2]): B
Increase in Neurite Number (Rat cortical neurons [2]): B
EC50 (5HT2A [3]): > 110 µM
EC50 (5HT2A [4]): > 10 µM
IC50 (5HT2A [5]): 1 to 10 µM

COc1ccc2c(CCN(C)C)c[nH]c2c1 [Example 6-MeO-DMT]
activation of 5HT2A sensor assay in agonist mode (5HT2A [6]): do not activate the 5HT2A sensor assay in agonist mode
head-twitch response (HTR) (mice): does not produce a HTR
competition with 5-HT in 5HT2A sensor assay in antagonist mode (5HT2A [7]): compete off 5-HT

CN(C)CCn1ccc2cnccc21 [Example 7, N,N-dimethyl-2-(1H-pyrrolo[3,2-c]pyridin-1-yl)ethan-1-amine]
Neurite Average Length @ 10 μM (Rat cortical neurons [1]): B (100%-200% vehicle)
Neurite Branch Points: @ 10 μM (Rat cortical neurons [1]): A (>200% vehicle)
Increase in Neurite Length (Rat cortical neurons [2]): A
Increase in Neurite Number (Rat cortical neurons [2]): B
EC50 (5HT2A [3]): > 110 µM
EC50 (5HT2A [4]): > 10 µM
IC50 (5HT2A [5]): > 10 µM

COc1ccc2c(c1)CCN2CCN(C)C [Example 8, 2-(5-methoxyindolin-1-yl)-N,N-dimethylethan-1-amine]
Neurite Average Length @ 10 μM (Rat cortical neurons [1]): B (100%-200% vehicle)
Neurite Branch Points: @ 10 μM (Rat cortical neurons [1]): A (>200% vehicle)
Increase in Neurite Length (Rat cortical neurons [2]): A
Increase in Neurite Number (Rat cortical neurons [2]): B
EC50 (5HT2A [3]): > 110 µM
EC50 (5HT2A [4]): > 10 µM
IC50 (5HT2A [5]): > 10 µM
